Measurements: patent US20200339691A1, “PROTEINACEOUS MOLECULES AND USES THEREFOR” (priority 2018, published 2020)
pIC50: −log10 of the molar value. “Also recorded” adds a separate entry of the source. Where a SMILES comes first, the peptide text is derived from it. The star is where a group is joined. Myristoyl = CCCCCCCCCCCCCC(=O)*

Assays:
EHTM2 = test: Immunofluorescence of EHTM2 in MDA-MB-231 cells; assay type: cell-based, human; settings: 50 μM, 72 hours
Protocol: (§1) Cells were treated with 50 μM P1, P2, P3 or P4 (synthesized in accordance with Example 5) or vehicle (water) for 72 hours. […] Confocal laser scanning microscopy was used to measure the […] and TCFI as described above. At least 20 individual cells were analyzed per sample.

SETDB1 = test: Immunofluorescence of SETDB1 in MDA-MB-231 cells; assay type: cell-based, human; settings: 50 μM, 72 hours
Protocol: as §1

p300 = target: T1, p300 (Homo sapiens, UniProt Q09472); test: Immunofluorescence of p300 localization in MDA-MB-231 cells; assay type: cell-based; settings: 50 μM
T1 construct: endogenous in cells; host or cells: MDA-MB-231
Protocol: (§2) The effect of P1, P2, P3 and P4 (synthesized in accordance with Example 5) on p300 localization was examined using confocal laser scanning microscopy. […] Cover slips were mounted on glass microscope slides with ProLong Diamond Antifade reagent (Life Technologies). Protein targets were localized by confocal laser scanning microscopy as described above. TNFI and PCC(r) were calculated using ImageJ software as previously described.

SNAI1 = test: Immunofluorescence of SNAI1 in MDA-MB-231 cells; assay type: cell-based, human; settings: 50 μM, 72 hours
Protocol: (§3) 1×10^4 MDA-MB-231 cells were seeded onto coverslips in 12 well plates with DMEM media. Cells were treated with 50 μM P1, P2, P3 or P4 (synthesized in accordance with Example 5) or vehicle (water) for 72 hours. Cells were fixed with 3.7% formaldehyde and permeabilized with 2% Triton-X-100, then probed with primary mouse antibodies to CSV, DMNT1, H3K9me3 or 5-methylcytosine; primary goat antibodies to SNAI1, SETDB1 or ABCB5; or primary rabbit antibodies to PD-L1, EGFR, EHMT2; followed by the corresponding secondary antibody conjugated to anti-mouse Alexa-Fluor 568, anti-goat Alexa-Fluor 633 or anti-rabbit Alexa-Fluor 488. Confocal laser scanning microscopy was used to measure the TFI, TNFI and TCFI as described above. At least 20 individual cells were analyzed per sample.

[1] = test system: cell surface vimentin (CSV); test: Immunofluorescence of CSV in MDA-MB-231 cells, Example 14; assay type: cell-based, human; settings: 50 μM, 72 hours
Protocol: 1×10^4 MDA-MB-231 cells were treated with 50 μM P1, P2, P3 (synthesized in accordance with Example 5) or vehicle (water) for 72 hours. Cells were fixed with 3.7% formaldehyde and permeabilized with 2% Triton-X-100, then probed with a primary rabbit antibody to PD-L2, primary goat antibody to PD-L1 and primary mouse antibody to CSV, followed by the corresponding secondary antibody conjugated to anti-mouse Alexa-Fluor 568, anti-goat Alexa-Fluor 633 or anti-rabbit Alexa-Fluor 488. Confocal laser scanning microscopy was used to measure the TNFI and TCFI as described above. At least 20 individual cells were analyzed per sample.

[2] = test system: acetylated PD-L1 and p300; test: Colocalization (PCC(r)) of acetylated PD-L1 and p300 in MDA-MB-231 cells; assay type: cell-based, human; settings: 50 μm
Protocol: as §2

MDA-MB-231 cells [3] = assay type: cell-based, human; settings: 50 μM peptide, 48 hours, n = 1
From the text: Non-adherent cells were removed during the washing steps.

PD-1 = test: Immunofluorescence of PD-1 in Jurkat T-cells; assay type: cell-based; settings: 50 μM, 72 hours, relative to the control
Protocol: 1×10^4 Jurkat T-cells were seeded onto coverslips in 12 well plates with DMEM media. Cells were treated with 50 μM P1, P2, P3 (synthesized in accordance with Example 5) or vehicle (water) for 72 hours. Cells were fixed with 3.7% formaldehyde and permeabilized with 2% Triton-X-100, then probed with a primary mouse antibody to PD-1 directly conjugated to Alexa-Fluor 647. Confocal laser scanning microscopy was used to measure the TNFI, TCFI and Fn/c as described above. At least 20 individual cells were analyzed per sample.

MDA-MB-231 cells [4] = settings: 72 h
Protocol: The effect of P1, P2 and P3 (synthesized in accordance with Example 5) on MDA-MB-231 cell proliferation was assessed using a WST-1 proliferation assay.
MCF7 cells were transfected with a plasmid containing the wild-type PD-L1 sequence, a plasmid containing a PD-L1 [K263Q] mutant (Mut1) or vector only (VO) using the NEON electroporation transfection system (Life Technologies). Transfected cells were used for the colorimetric based WTS-1 proliferation assay (Sigma-Aldrich) to examine the effect of transfection on MCF7 cell proliferation. The WTS-1 proliferation assay was also used to determine the effect of treatment with P1, P2 and P3 (synthesized in accordance with Example 5) on MDA-MB-231 cell proliferation. The stable tetrazolium salt WST-1 is cleaved to a soluble formazan by a complex cellular mechanism that occurs primarily at the cell surface. This bioreduction is largely dependent on the glycolytic production of NAD(P)H in viable cells. Therefore, the amount of formazan dye formed directly correlates to the number of metabolically active cells in the culture. Cells grown in a 96-well tissue culture plate were treated with vehicle only or 6.25, 12.5, 25, 50, 100, 200 or 400 μM of P1, P2 or P3 for 72 hours at 37° C. in a humidified CO2 incubator. Cells were then incubated with the WST-1 reagent for 0.5-4 hours. Following incubation, the formazan dye formed is quantitated with a scanning multi-well spectrophotometer (ELISA reader). The measured absorbance directly correlates to the number of viable cells.

ABCBS = test: Immunofluorescence of ABCBS in MDA-MB-231 cells; assay type: cell-based, human; settings: 50 μM, 72 hours
Protocol: as §3

H3K9me3 = test: Immunofluorescence of H3K9me3 in MDA-MB-231 cells; assay type: cell-based, human; settings: 50 μM, 72 hours
Protocol: as §3

5-methylcytosine = test: Immunofluorescence of 5-methylcytosine in MDA-MB-231 cells; assay type: cell-based, human; settings: 50 μM, 72 hours
Protocol: as §3
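Wherever COI, Live Single Cells (Cell Count) is given: live means Hoechst-negative events among single cells.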

T1 sequence (Q09472 whole entry): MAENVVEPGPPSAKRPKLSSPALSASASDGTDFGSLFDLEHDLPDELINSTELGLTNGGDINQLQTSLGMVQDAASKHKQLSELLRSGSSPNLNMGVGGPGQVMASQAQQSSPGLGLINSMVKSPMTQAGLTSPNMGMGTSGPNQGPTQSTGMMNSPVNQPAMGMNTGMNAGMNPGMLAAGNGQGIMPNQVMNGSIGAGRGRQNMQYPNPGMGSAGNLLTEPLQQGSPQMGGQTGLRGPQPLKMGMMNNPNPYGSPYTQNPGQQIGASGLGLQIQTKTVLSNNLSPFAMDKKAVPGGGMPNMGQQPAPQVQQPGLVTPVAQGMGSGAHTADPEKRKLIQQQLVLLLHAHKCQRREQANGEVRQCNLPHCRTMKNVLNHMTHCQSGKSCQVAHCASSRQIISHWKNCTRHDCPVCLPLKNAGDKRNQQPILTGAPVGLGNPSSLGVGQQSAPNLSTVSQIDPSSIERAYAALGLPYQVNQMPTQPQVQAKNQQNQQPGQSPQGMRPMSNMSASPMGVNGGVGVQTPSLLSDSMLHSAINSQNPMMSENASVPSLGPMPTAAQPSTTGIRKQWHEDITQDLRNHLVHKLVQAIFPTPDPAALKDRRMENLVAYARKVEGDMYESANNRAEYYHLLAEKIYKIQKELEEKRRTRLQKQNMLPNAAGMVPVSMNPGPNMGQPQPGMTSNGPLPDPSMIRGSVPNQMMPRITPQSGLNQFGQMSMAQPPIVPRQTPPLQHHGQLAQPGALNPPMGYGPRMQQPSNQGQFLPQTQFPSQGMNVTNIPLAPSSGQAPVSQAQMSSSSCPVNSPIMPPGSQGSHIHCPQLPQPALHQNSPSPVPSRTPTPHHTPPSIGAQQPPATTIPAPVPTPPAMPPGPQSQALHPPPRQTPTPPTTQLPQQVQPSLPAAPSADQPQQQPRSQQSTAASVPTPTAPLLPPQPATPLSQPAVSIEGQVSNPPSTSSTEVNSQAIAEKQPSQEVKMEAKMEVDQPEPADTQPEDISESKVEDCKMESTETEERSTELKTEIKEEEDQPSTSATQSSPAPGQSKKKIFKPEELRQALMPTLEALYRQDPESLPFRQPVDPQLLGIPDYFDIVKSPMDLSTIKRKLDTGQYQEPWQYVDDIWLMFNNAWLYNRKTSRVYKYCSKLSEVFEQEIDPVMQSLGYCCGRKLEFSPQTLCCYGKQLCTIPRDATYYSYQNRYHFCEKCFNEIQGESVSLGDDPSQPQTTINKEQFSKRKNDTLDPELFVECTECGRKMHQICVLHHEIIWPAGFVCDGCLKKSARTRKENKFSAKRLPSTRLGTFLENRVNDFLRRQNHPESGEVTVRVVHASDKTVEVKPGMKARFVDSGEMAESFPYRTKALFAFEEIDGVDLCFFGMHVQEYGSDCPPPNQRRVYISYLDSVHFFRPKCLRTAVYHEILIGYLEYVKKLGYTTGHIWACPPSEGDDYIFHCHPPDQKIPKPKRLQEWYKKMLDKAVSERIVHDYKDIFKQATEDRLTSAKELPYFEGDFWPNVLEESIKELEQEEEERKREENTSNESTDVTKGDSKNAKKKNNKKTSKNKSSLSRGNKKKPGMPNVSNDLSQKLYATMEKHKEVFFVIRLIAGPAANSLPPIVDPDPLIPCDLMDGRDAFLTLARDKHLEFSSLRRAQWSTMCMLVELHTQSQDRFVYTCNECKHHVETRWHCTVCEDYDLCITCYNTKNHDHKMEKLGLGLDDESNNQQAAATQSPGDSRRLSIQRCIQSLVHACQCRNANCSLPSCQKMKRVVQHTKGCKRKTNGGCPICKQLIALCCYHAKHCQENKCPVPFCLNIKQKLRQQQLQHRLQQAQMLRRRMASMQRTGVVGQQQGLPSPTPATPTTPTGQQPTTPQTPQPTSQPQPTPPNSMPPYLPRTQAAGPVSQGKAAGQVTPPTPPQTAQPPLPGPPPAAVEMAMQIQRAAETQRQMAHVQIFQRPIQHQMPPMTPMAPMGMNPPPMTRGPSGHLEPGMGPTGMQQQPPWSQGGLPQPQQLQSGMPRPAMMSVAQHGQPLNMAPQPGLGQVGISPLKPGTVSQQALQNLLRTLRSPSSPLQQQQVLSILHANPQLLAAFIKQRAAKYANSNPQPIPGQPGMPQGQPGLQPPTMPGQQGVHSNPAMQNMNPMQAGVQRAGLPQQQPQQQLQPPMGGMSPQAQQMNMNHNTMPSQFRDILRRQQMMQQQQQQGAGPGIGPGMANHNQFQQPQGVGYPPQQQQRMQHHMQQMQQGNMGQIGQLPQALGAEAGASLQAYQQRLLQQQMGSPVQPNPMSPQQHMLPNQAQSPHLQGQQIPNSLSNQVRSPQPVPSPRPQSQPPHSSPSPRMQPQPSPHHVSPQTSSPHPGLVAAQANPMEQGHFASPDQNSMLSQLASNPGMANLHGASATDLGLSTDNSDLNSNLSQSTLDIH

Row | SMILES | expression / localization of EHTM2 (EHTM2) | expression / nuclear localization of SETDB1 (SETDB1) | p300 nuclear expression (p300) | expression of SNAI1 (SNAI1) | CSV expression [1] | colocalization of acetylated PD-L1 and p300 [2] | COI (Cell Count) (MDA-MB-231 cells [3]) | COI, Live Single Cells (Cell Count) (MDA-MB-231 cells [3]) | COI, Single (Cell Count) (MDA-MB-231 cells [3]) | Total Cell Count (MDA-MB-231 cells [3]) | Viable Cells (%) (MDA-MB-231 cells [3]) | PD-1 nuclear localization (PD-1) | pIC50 (MDA-MB-231 cells [4]) | expression of ABCBS (ABCBS) | expression of H3K9me3 (H3K9me3) | expression of 5-methylcytosine (5-methylcytosine)
1 | CCCCCCCCCCCCCC(=O)N[C@@H](CC(C)C)C(=O)N[C@H](C(=O)N[C@@H](Cc1ccccc1)C(=O)N[C@H](C(=O)N[C@@H](Cc1ccccc1)C(=O)N[C@@H](CCCNC(=N)N)C(=O)N[C@@H](CC(C)C)C(=O)N[C@@H](CCCNC(=N)N)C(=O)N[C@@H](CCCCN)C(=O)NCC(=O)N[C@@H](CCCNC(=N)N)C(=O)N[C@@H](CCSC)C(=O)N[C@@H](CCSC)C(=O)N[C@@H](CC(=O)O)C(=O)N[C@H](C(=O)N[C@@H](CCCCN)C(=O)N[C@@H](CCCCN)C(N)=O)C(C)C)[C@@H](C)CC)[C@@H](C)O [Peptide P1, Myristoyl-LTFIFRLRKGRMMDVKK-NH2] (Myristoyl-LTFIFRLRKGRMMDVKK-NH2) | significantly abrogated | significantly abrogated | significantly decreased | uniformly inhibited | significantly inhibited | significantly decreased | 2038 | 1395 | 1523 | 4339 | 91.60 | significantly inhibited | 3.99 |  |  | 
2 | CCCCCCCCCCCCCC(=O)N[C@@H](CC(C)C)C(=O)N[C@H](C(=O)N[C@@H](Cc1ccccc1)C(=O)N[C@H](C(=O)N[C@@H](Cc1ccccc1)C(=O)N[C@@H](CCCNC(=N)N)C(=O)N[C@@H](CC(C)C)C(=O)N[C@@H](CCCNC(=N)N)C(=O)N[C@@H](CCC(N)=O)C(=O)NCC(=O)N[C@@H](CCCNC(=N)N)C(=O)N[C@@H](CCSC)C(=O)N[C@@H](CCSC)C(=O)N[C@@H](CC(=O)O)C(=O)N[C@H](C(=O)N[C@@H](CCCCN)C(=O)N[C@@H](CCCCN)C(N)=O)C(C)C)[C@@H](C)CC)[C@@H](C)O [Peptide P2, Myristoyl-LTFIFRLRQGRMMDVKK-NH2] (Myristoyl-LTFIFRLRQGRMMDVKK-NH2) | significantly abrogated | significantly abrogated | significantly decreased | uniformly inhibited | significantly inhibited | significantly decreased | 6317 | 4402 | 4580 | 12706 | 96.11 | significantly inhibited | 3.25 |  |  | 
3 | CCCCCCCCCCCCCC(=O)N[C@@H](CC(C)C)C(=O)N[C@H](C(=O)N[C@@H](Cc1ccccc1)C(=O)N[C@H](C(=O)N[C@@H](Cc1ccccc1)C(=O)N[C@@H](CCCNC(=N)N)C(=O)N[C@@H](CC(C)C)C(=O)N[C@@H](CCCNC(=N)N)C(=O)N[C@@H](CCCCNC(C)=O)C(=O)NCC(=O)N[C@@H](CCCNC(=N)N)C(=O)N[C@@H](CCSC)C(=O)N[C@@H](CCSC)C(=O)N[C@@H](CC(=O)O)C(=O)N[C@H](C(=O)N[C@@H](CCCCN)C(=O)N[C@@H](CCCCN)C(N)=O)C(C)C)[C@@H](C)CC)[C@@H](C)O [Peptide P3, Myristoyl-LTFIFRLRK(Ac)GRMMDVKK-NH2] (Myristoyl-LTFIFRLRK(Ac)GRMMDVKK-NH2) | significantly abrogated | significantly abrogated | significantly decreased; also recorded: greatest effect | uniformly inhibited | significantly inhibited | significantly decreased | 6874 | 5099 | 5237 | 20311 | 97.36 | significantly inhibited | 3.27 | strongly inhibited | strongly inhibited | strongly inhibited
